One assay concerns SK-N-FI. Nature of the assay: SK-N-F1, control cell line Proliferation assay. The format is functional, Homo sapiens. The note with it: time 6 day.
For assay [1], the target named is Misshapen-like kinase 1 (Homo sapiens) (UniProt Q8N4C8). The assay can be described thus: MINK(h) Eurofins kinase panel. Particulars: Compound concentration 1.0 uM.
The target of assay [2] is T1, Dual specificity mitogen-activated protein kinase kinase 6 (Homo sapiens) (UniProt P52564).
T1 sequence (whole entry): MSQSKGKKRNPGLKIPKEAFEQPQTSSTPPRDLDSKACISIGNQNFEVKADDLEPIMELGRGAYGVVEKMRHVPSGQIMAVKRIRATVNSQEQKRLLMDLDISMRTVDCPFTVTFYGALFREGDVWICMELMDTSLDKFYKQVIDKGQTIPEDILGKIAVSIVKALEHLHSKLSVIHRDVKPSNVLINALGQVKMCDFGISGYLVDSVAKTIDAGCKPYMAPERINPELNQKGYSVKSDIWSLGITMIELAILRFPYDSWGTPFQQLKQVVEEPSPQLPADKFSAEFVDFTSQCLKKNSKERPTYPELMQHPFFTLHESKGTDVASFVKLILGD
Nature of the assay: MKK6(h) Eurofins kinase panel. The note with it: Compound concentration 1.0 uM.

The target of assay [3] is T2, Serine/threonine-protein kinase MAK (Homo sapiens) (UniProt P20794).
T2 sequence (whole entry): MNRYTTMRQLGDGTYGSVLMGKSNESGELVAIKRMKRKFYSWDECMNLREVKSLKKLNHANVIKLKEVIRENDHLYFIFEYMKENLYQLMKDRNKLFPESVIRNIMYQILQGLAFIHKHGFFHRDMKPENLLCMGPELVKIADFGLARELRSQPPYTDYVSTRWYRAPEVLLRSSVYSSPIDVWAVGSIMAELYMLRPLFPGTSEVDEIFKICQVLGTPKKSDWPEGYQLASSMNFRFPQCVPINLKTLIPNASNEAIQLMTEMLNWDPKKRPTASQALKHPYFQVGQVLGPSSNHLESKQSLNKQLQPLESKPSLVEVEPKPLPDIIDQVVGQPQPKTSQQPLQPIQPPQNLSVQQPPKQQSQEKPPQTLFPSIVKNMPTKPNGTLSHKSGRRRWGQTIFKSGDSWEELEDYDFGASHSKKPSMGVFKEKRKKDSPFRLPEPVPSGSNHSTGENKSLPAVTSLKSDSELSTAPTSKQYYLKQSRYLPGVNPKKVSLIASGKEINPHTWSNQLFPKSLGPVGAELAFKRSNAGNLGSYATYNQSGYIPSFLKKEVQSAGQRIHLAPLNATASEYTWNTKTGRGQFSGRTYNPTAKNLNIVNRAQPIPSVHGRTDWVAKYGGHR
Nature of the assay: MAK(h) Eurofins kinase panel. The note with it: Compound concentration 1.0 uM.

Assay [4] deals with High affinity nerve growth factor receptor (Homo sapiens) (UniProt P04629). Nature of the assay: TrkA(h) Eurofins kinase panel. The note with it: Compound concentration 1.0 uM.
High affinity nerve growth factor receptor (Homo sapiens), sequence (P04629 33-796 limits assumed): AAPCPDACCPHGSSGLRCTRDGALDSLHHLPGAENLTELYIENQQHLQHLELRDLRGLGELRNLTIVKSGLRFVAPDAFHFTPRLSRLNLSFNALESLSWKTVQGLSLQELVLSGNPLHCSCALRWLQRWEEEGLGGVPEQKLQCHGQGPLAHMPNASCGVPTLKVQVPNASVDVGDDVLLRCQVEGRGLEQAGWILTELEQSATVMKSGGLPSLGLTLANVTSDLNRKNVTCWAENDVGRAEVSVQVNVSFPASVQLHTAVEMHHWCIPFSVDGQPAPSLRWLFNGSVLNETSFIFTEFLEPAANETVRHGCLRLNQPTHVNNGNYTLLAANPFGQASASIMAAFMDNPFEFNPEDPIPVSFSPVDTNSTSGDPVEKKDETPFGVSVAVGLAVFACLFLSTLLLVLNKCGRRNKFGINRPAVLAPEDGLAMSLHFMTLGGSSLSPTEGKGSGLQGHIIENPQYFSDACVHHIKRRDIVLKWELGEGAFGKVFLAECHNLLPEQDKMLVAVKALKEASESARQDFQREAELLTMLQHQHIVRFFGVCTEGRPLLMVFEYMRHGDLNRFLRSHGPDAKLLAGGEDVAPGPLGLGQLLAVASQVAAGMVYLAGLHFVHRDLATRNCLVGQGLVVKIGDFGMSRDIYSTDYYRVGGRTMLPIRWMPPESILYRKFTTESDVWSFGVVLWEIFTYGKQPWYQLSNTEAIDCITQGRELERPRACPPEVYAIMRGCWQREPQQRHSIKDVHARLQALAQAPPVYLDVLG
The target of assay [5] is T3, Rhodopsin kinase GRK7 (Homo sapiens) (UniProt Q8WTQ7).
T3 sequence (whole entry): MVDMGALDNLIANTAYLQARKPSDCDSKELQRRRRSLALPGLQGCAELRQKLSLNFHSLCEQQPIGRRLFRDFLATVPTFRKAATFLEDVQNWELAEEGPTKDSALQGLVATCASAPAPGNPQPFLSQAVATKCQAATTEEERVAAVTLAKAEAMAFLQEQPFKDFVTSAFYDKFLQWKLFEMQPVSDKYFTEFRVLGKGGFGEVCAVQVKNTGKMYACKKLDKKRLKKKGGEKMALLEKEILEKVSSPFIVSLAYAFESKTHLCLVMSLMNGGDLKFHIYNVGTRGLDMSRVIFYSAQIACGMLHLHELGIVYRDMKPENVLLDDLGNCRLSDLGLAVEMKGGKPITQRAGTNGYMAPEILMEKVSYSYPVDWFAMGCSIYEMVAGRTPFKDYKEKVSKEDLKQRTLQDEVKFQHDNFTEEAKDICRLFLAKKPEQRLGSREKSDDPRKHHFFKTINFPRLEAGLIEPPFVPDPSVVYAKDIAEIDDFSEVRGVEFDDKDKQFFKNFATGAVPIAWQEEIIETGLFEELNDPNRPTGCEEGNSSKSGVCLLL
The assay can be described thus: GRK7(h) Eurofins kinase panel. The note with it: Compound concentration 1.0 uM.

The target of assay [6] is Tyrosine-protein kinase Yes (Homo sapiens) (UniProt P07947). The assay can be described thus: Yes(h) Eurofins kinase panel. Particulars: Compound concentration 1.0 uM.
Tyrosine-protein kinase Yes (Homo sapiens), sequence (P07947 2-543 limits assumed): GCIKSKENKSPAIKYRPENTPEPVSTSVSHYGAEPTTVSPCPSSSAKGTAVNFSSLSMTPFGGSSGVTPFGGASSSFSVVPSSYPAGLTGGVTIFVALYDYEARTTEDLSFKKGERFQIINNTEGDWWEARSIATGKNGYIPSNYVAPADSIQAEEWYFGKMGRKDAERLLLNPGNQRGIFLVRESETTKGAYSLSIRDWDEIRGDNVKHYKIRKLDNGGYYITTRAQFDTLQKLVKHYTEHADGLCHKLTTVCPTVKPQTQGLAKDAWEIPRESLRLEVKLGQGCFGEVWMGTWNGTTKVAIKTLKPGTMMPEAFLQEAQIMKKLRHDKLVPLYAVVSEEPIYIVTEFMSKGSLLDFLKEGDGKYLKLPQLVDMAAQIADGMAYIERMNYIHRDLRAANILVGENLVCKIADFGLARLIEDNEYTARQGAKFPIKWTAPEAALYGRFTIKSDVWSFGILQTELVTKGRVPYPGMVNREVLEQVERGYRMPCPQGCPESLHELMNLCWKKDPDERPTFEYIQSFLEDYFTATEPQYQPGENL
For assay [7], the target named is Mitogen-activated protein kinase 10 (Homo sapiens) (UniProt P53779). Nature of the assay: JNK3(h) Eurofins kinase panel. The note with it: Compound concentration 1.0 uM.
Mitogen-activated protein kinase 10 (Homo sapiens), sequence (P53779 whole entry): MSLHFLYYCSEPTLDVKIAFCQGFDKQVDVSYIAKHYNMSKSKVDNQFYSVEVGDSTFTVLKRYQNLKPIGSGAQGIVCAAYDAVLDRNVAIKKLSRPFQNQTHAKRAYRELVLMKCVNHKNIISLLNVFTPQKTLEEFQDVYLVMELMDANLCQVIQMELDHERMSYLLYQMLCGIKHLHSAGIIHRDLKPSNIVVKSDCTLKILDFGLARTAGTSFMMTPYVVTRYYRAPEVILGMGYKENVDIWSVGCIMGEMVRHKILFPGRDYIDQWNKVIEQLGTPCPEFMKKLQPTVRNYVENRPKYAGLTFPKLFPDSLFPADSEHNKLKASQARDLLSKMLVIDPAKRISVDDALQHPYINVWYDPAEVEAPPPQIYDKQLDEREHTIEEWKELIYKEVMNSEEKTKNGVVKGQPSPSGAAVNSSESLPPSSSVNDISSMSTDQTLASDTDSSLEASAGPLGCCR
For the next assay, the system named is LP-1. The assay can be described thus: LP-1 cell line Proliferation assay. The note with it: time 3 day. The assay is classed as functional, Homo sapiens.
Assay [8] addresses CDK3/cyclin E (Homo sapiens) (UniProt P24864+O96020+Q00526). Nature of the assay: CDK3/cyclinE(h) Eurofins kinase panel. The assay is classed as protein-complex assay. Particulars: Compound concentration 1.0 uM.
For assay [9], the target named is Maternal embryonic leucine zipper kinase (Homo sapiens) (UniProt Q14680). The assay can be described thus: MELK(h) Eurofins kinase panel. The note with it: Compound concentration 1.0 uM.
Maternal embryonic leucine zipper kinase (Homo sapiens), sequence (Q14680 whole entry, looked up): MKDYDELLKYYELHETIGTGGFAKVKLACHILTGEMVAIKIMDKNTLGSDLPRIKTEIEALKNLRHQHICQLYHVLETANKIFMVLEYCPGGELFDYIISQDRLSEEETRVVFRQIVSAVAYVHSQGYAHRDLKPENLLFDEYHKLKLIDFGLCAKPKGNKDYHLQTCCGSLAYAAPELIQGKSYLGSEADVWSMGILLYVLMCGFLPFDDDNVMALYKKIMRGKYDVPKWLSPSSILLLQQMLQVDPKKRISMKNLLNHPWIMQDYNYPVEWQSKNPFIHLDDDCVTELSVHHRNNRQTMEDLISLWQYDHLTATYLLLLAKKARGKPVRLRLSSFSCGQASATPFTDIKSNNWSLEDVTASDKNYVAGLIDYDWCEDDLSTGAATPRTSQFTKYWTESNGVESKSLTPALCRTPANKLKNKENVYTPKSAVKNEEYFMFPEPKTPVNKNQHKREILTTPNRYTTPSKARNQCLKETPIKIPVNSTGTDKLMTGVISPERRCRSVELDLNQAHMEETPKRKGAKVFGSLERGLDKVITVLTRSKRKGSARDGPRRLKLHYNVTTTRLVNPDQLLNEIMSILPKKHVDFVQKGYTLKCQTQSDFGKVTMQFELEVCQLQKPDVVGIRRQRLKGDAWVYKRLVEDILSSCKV
The target in assay [10] is T4, SNF-related serine/threonine-protein kinase (Homo sapiens) (UniProt Q9NRH2).
T4 sequence (whole entry): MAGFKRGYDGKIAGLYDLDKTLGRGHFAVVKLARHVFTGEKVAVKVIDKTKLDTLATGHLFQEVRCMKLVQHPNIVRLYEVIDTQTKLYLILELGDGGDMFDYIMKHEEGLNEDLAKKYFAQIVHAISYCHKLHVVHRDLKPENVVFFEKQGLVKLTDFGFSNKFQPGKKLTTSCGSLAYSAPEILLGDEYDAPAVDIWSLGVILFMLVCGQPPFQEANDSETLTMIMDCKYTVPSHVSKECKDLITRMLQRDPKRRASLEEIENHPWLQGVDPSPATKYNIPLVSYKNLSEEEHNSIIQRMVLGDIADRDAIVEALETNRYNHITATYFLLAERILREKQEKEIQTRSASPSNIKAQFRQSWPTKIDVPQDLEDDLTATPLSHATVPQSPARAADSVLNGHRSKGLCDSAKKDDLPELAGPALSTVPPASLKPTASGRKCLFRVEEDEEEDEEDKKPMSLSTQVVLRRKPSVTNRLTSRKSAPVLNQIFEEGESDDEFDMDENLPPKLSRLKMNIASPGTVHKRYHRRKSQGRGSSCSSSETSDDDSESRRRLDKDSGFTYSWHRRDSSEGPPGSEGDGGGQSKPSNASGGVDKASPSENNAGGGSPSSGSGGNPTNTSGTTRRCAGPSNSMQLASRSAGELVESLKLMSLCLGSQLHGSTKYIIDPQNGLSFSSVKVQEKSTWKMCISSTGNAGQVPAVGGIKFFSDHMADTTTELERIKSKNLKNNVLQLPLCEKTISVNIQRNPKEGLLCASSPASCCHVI
The assay can be described thus: SNRK(h) Eurofins kinase panel. Particulars: Compound concentration 1.0 uM.

Assay [11] has as its target G protein-coupled receptor kinase 5 (Homo sapiens) (UniProt P34947). Nature of the assay: GRK5(h) Eurofins kinase panel. The note with it: Compound concentration 1.0 uM.
In assay [12] the target is Platelet-derived growth factor receptor beta (Homo sapiens) (UniProt P09619). Nature of the assay: PDGFRbeta(h) Eurofins kinase panel. The note with it: Compound concentration 1.0 uM.
Platelet-derived growth factor receptor beta (Homo sapiens), sequence (P09619 whole entry): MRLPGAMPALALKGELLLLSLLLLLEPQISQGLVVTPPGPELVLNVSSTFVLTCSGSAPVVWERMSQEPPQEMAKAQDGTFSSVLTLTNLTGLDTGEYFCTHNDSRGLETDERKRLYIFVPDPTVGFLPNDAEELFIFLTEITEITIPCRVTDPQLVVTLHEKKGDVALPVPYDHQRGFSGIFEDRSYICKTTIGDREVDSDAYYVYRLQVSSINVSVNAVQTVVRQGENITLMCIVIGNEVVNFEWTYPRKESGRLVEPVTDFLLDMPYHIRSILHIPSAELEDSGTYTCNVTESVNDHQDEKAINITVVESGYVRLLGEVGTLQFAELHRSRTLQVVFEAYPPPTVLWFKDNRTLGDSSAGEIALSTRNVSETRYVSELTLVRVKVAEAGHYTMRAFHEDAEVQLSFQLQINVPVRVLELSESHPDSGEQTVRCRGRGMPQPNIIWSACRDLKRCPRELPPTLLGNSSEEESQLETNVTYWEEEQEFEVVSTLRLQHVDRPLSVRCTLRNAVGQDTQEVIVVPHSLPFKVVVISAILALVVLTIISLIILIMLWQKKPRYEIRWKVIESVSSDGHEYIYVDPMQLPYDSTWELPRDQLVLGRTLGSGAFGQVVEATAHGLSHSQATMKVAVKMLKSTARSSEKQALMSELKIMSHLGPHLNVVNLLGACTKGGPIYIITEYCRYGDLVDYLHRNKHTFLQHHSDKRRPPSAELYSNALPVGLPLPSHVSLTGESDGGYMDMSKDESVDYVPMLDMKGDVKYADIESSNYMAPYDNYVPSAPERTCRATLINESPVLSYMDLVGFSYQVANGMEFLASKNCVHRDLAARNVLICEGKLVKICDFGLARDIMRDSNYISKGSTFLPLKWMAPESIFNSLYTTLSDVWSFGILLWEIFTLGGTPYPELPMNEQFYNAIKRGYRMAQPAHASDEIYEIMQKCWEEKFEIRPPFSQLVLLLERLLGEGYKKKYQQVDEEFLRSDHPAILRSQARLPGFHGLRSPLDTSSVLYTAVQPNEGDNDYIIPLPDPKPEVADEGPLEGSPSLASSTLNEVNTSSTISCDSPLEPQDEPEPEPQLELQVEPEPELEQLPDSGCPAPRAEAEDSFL
For assay [13], the target named is Tyrosine-protein kinase Fer (Homo sapiens) (UniProt P16591). The assay can be described thus: Fer(h) Eurofins kinase panel. Particulars: Compound concentration 1.0 uM.

Structures are written as SMILES.

Misshapen-like kinase 1 (Homo sapiens), sequence (Q8N4C8 whole entry, looked up): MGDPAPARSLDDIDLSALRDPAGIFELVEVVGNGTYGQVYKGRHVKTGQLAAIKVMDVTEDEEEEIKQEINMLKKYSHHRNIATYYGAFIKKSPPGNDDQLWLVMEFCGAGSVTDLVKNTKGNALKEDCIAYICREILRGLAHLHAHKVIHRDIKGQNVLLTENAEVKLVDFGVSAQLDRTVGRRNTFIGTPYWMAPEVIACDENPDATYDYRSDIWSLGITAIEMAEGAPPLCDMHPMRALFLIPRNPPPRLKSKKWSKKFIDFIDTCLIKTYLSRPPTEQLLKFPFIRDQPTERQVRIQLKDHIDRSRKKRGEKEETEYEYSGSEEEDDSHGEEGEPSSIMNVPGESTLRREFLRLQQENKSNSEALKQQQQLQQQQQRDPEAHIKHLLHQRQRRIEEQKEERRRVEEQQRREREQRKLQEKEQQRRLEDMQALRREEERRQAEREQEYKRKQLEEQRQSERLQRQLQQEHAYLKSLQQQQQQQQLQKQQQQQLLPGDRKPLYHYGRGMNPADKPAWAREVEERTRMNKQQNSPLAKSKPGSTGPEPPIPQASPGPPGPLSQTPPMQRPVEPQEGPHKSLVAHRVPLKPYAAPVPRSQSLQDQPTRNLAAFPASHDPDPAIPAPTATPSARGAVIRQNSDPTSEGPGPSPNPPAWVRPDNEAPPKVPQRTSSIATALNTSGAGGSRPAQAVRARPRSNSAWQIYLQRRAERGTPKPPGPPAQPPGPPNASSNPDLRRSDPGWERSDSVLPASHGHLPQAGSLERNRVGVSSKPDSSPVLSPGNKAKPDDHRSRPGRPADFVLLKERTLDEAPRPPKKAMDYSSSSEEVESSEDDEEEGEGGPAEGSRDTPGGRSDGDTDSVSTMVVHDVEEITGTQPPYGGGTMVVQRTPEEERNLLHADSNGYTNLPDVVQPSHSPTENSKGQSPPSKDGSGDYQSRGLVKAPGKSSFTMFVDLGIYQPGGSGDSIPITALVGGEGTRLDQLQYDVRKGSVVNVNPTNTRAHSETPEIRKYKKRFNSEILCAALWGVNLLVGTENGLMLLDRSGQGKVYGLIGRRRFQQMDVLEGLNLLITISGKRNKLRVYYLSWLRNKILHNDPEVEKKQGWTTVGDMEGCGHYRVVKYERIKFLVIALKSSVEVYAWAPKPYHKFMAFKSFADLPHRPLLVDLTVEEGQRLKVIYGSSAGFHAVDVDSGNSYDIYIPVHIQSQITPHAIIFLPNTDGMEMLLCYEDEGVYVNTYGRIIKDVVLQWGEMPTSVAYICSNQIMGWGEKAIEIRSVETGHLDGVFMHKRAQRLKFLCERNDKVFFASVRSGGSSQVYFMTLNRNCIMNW

In the case of `CCc1ccccc1C(=O)Nc1n[nH]c2c(C)c(F)c(C3C(C#N)=C(C)N(C)C(C)=C3C#N)cc12` [BAY-3827], the “Cell Proliferation IC50” value in the assay on SK-N-FI came out at 21.2 µM; with LP-1, 1.9 µM. Further, the % residual kinase activity was 99% in assay [1]; 94% in assay [2]; 95% in assay [3]; 60% in [4]; 78% in assay [5]; 90% in [6]. Besides, the % residual kinase activity in assay [7] was 72%; in assay [8], 100%; in [9] it was 39%; in [10], 113%; in assay [11] it was 98%; in assay [12], 108%. Further, the % residual kinase activity in assay [13] is 100%.

(Values after ChEMBL document CHEMBL4507319 (2021).)
